From US11959083B2, “Immunosuppression-reverting oligonucleotides inhibiting the expression of CD39” (Secarna Pharmaceuticals GmbH & Co. KG, priority 2016, dated 2024)
l = locked nucleic acid (LNA); d = 2'-deoxy (DNA)

Experiments:
[1] = tested on: mCD39 mRNA; test: mCD39 mRNA knockdown efficacy screen in A20 cells (single dose, gymnotic delivery, QuantiGene Singleplex); type: cell-based, mouse; conditions: 10 μM, three days, normalized to HPRT1
Protocol: FIG. 14-1 and 14-2 show mCD39 mRNA knockdown efficacy of mCD39 antisense oligonucleotides in the murine cancer cell line A20 (mouse B cell lymphoma). A20 cells were treated with a single dose of 10 μM of the respective antisense oligonucleotide. As negative control, cells were treated with neg1, an antisense oligonucleotide having the sequence CGTTTAGGCTATGTACTT (SEQ ID NO:99). Residual mCD39 mRNA expression relative to untreated cells is depicted. Expression values were normalized to expression of the housekeeping gene HPRT1.
In order to analyze the efficacy of mCD39 antisense oligonucleotides with regard to the knockdown of mCD39 mRNA expression in a cancer cell line, A20 (mouse B cell lymphoma, ATCC) cells were treated with a single dose (concentration: 10 μM without addition of any transfection reagent; this process is called gymnotic delivery) of the respective antisense oligonucleotide as indicated in FIG. 14. As control, cells were treated with neg1, an antisense oligonucleotide having the sequence CGTTTAGGCTATGTACTT (SEQ ID NO:99). mCD39 and HPRT1 mRNA expression was analyzed after three days using the QuantiGene Singleplex assay (Affymetrix) and mCD39 expression values were normalized to HPRT1 expression values.

[2] = tested on: hCD39 mRNA; test: IC50 determination / concentration-dependent hCD39 mRNA knockdown in HDLM-2 cells; type: cell-based, human; conditions: for mRNA inhibition: HDLM-2, 3 days; for IC50: HDLM-2 cells, hCD39 mRNA, 3 days
Protocol: HDLM-2 cells were treated for 3 days with the indicated concentration of the respective antisense oligonucleotide. Residual hCD39 expression is depicted compared to untreated control cells. hCD39 mRNA expression values were normalized to expression of the housekeeping gene HPRT1.
The antisense oligonucleotide A04040H (SEQ ID No. 3) that had shown potent activity in the first and second screening round was used as reference. HDLM-2 cells treated for 3 days with the indicated concentrations of the respective antisense oligonucleotide. hCD39 mRNA expression values were normalized to expression of the housekeeping gene HPRT1. Residual hCD39 mRNA expression relative to untreated cells (set as 100) is depicted. Depicted is the mean of triplicate wells+/−SD.
In a second experiment the concentration-dependency of effects and the IC50 values of hCD39 antisense oligonucleotides A04010H (SEQ ID No.14), A04016H (SEQ ID No.20), A04017H (SEQ ID No.21), A04020H (SEQ ID No. 24) and A04026H (SEQ ID No.30) were tested. […] HDLM-2 cells were treated with titrated amounts of the respective antisense oligonucleotide (concentrations: 10 μM, 3.3 μM, 1.1 μM, 370 nM, 120 nM, 41 nM, 14 nM, 4.5 nM). hCD39 mRNA expression was analyzed after three days of treatment. FIG. 5 and Table 9 depicts the concentration-dependent reduction of hCD39 mRNA expression by the selected hCD39 antisense oligonucleotides.
The hCD39 antisense oligonucleotides A04051H (SEQ ID No.88), A04052H (SEQ ID No.89), A04053H ([…]), A04056H (SEQ ID No.92), A04059H (SEQ ID No.94), A04060H (SEQ ID No.95), and A04061H (SEQ ID No.96) had shown potent single-dose activity in both HDLM-2 and A-172 cells. […] The antisense oligonucleotide A04040H that had shown potent activity in the first screening round was used as reference. hCD39 mRNA expression was analyzed after 3 days of treatment. FIG. 7 depicts the concentration-dependent reduction of hCD39 expression by hCD39 antisense oligonucleotides.

[3] = tested on: hCD39 mRNA; test: hCD39 mRNA knockdown efficacy screen in HDLM-2 cells (single dose, gymnotic delivery, QuantiGene Singleplex); type: cell-based, human; parameters: key to Relative hCD39 mRNA expression (compared to non-treated cells): *: values are below detection limit; conditions: 10 μM, 3 days; for Residual hCD39 mRNA expression relative to untreated cells (set as 1): third screening round; for Mean hCD39 mRNA expression normalized to HPRT1 relative to untreated control = 1: first screening round; for Relative hCD39 mRNA expression (compared to non-treated cells): second screening round, normalized to HPRT1
How it was run: (§1)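 Antisense oligonucleotides given once at 10 μM without transfection reagent (gymnotic) to HDLM-2 or A-172 cells for 3 days. hCD39 mRNA measured by QuantiGene Singleplex, normalized to HPRT1 and expressed relative to untreated cells; triplicate means.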

[4] = tested on: hCD39 mRNA; test: hCD39 mRNA knockdown efficacy screen in A-172 cells (single dose, gymnotic delivery, QuantiGene Singleplex); type: cell-based, human; conditions: 10 μM, 3 days; for Residual hCD39 mRNA expression relative to untreated cells (set as 1): third screening round; for Mean hCD39 mRNA expression (relative to untreated cells set as 1): first screening round; for Mean hCD39 mRNA expression (relative to untreated cells set as 1) / Relative hCD39 mRNA expression (compared to non-treated cells): normalized to HPRT1; for Relative hCD39 mRNA expression (compared to non-treated cells): second screening round
How it was run: as §1

[5] = third screening round (Table 12)
[6] = first screening round (Table 8)

## +A*+C*+A*T*T*T*C*T*T*A*C*T*C*+G*+T*+T (antisense ACATTTCTTACTCGTT; sugars from the 5' end l3 d10 l3, all phosphorothioate, methylation of C not given here) [A04022MR]
[1]
  Relative mCD39 mRNA expression (compared to non-treated cells): 0.20

## +A*+G*+A*T*C*C*A*A*A*G*C*G*C*+C*+A*+A (antisense AGATCCAAAGCGCCAA; sugars from the 5' end l3 d10 l3, all phosphorothioate, methylation of C not given here) [A04013MR]
[1]
  Relative mCD39 mRNA expression (compared to non-treated cells): 0.06

## +A*+G*+C*A*T*T*T*T*G*G*C*A*T*+C*+A*+C (antisense AGCATTTTGGCATCAC; sugars from the 5' end l3 d10 l3, all phosphorothioate, methylation of C not given here) [A04020MR]
[1]
  Relative mCD39 mRNA expression (compared to non-treated cells): 0.06

## +A*+G*+T*A*A*T*C*C*A*C*C*C*+A*+T*+A (antisense AGTAATCCACCCATA; sugars from the 5' end l3 d9 l3, all phosphorothioate, methylation of C not given here) [A04001MR]
[1]
  Relative mCD39 mRNA expression (compared to non-treated cells): 0.02

## +A*+G*+T*T*A*T*A*G*C*C*T*T*G*+C*+A*+G (antisense AGTTATAGCCTTGCAG; sugars from the 5' end l3 d10 l3, all phosphorothioate, methylation of C not given here) [A04017MR]
[1]
  Relative mCD39 mRNA expression (compared to non-treated cells): 0.07

## +T*+A*+C*G*T*T*C*A*C*T*A*C*C*T*+T*+C*+T (antisense TACGTTCACTACCTTCT; sugars from the 5' end l3 d11 l3, all phosphorothioate, methylation of C not given here) [A04052H]
[2]; 0.45 nM, Table 12
  mRNA inhibition: 24.52%
[2]; 1.3 nM, Table 12
  mRNA inhibition: 25.80%
[2]; 4 nM, Table 12
  mRNA inhibition: 9.03%
[2]; 12 nM, Table 12
  mRNA inhibition: 31.25%
[2]; 40 nM, Table 12
  mRNA inhibition: 49.21%
[2]; 110 nM, Table 12
  mRNA inhibition: 75.30%
[2]; 330 nM, Table 12
  mRNA inhibition: 88.35%
[2]; 1000 nM, Table 12
  mRNA inhibition: 94.72%
[2]; [5]
  IC50: 0.054 µM
[3]
  Residual hCD39 mRNA expression relative to untreated cells (set as 1): 0.00
[4]
  Residual hCD39 mRNA expression relative to untreated cells (set as 1): 0.25

## +T*+A*+C*G*T*T*C*A*C*T*A*C*C*T*+T*C*+T (antisense TACGTTCACTACCTTCT; sugars from the 5' end l3 d11 l1 d1 l1, all phosphorothioate, methylation of C not given here) [A04053H]
[2]; 0.45 nM, Table 12
  mRNA inhibition: 2.07%
[2]; 1.3 nM, Table 12
  mRNA inhibition: 17.51%
[2]; 4 nM, Table 12
  mRNA inhibition: 9.81%
[2]; 12 nM, Table 12
  mRNA inhibition: 26.67%
[2]; 40 nM, Table 12
  mRNA inhibition: 37.75%
[2]; 110 nM, Table 12
  mRNA inhibition: 66.64%
[2]; 330 nM, Table 12
  mRNA inhibition: 85.19%
[2]; 1000 nM, Table 12
  mRNA inhibition: 92.69%
[2]; [5]
  IC50: 0.0676 µM
[3]
  Residual hCD39 mRNA expression relative to untreated cells (set as 1): 0.01
[4]
  Residual hCD39 mRNA expression relative to untreated cells (set as 1): 0.31

## +T*+A*+T*G*G*T*A*C*A*G*T*+T*G*+G*+T (antisense TATGGTACAGTTGGT; sugars from the 5' end l3 d8 l1 d1 l2, all phosphorothioate, methylation of C not given here) [A04020H]
[2]; 0.0045 μM, Table 9
  mRNA inhibition: 23.58%
[2]; 0.013 μM, Table 9
  mRNA inhibition: 68.27%
[2]; 0.04 μM, Table 9
  mRNA inhibition: 94.26%
[2]; 0.12 μM, Table 9
  mRNA inhibition: 98.89%
[2]; 0.4 μM, Table 9
  mRNA inhibition: 99.42%
[2]; 1.1 μM, Table 9
  mRNA inhibition: 99.61%
[2]; 3.3 μM, Table 9
  mRNA inhibition: 99.55%
[2]; 10 μM, Table 9
  mRNA inhibition: 99.41%
[2]; second screening round (Table 9)
  IC50: 0.0101 µM
[3]
  Mean hCD39 mRNA expression normalized to HPRT1 relative to untreated control = 1: 0.08
  Relative hCD39 mRNA expression (compared to non-treated cells): 0.08
[4]
  Mean hCD39 mRNA expression (relative to untreated cells set as 1): 0.03
  Relative hCD39 mRNA expression (compared to non-treated cells): 0.04

## +T*+G*+C*C*A*G*A*G*T*G*C*C*T*G*+A*+T*+C (antisense TGCCAGAGTGCCTGATC; sugars from the 5' end l3 d11 l3, all phosphorothioate, methylation of C not given here) [A04042H]
[2]; 0.0045 μM, Table 8
  mRNA inhibition: −20.02%
[2]; 0.013 μM, Table 8
  mRNA inhibition: −2.65%
[2]; 0.04 μM, Table 8
  mRNA inhibition: 22.51%
[2]; 0.12 μM, Table 8
  mRNA inhibition: 32.44%
[2]; 0.4 μM, Table 8
  mRNA inhibition: 58.07%
[2]; 1.1 μM, Table 8
  mRNA inhibition: 76.38%
[2]; 3.3 μM, Table 8
  mRNA inhibition: 87.12%
[2]; 10 μM, Table 8
  mRNA inhibition: 95.87%
[2]; [6]
  IC50: 0.0609 µM
[3]
  Mean hCD39 mRNA expression normalized to HPRT1 relative to untreated control = 1: 0.10
  Relative hCD39 mRNA expression (compared to non-treated cells): *
  Residual hCD39 mRNA expression relative to untreated cells (set as 1): 0.09
[4]
  Mean hCD39 mRNA expression (relative to untreated cells set as 1): 0.37
  Relative hCD39 mRNA expression (compared to non-treated cells): 0.19
  Residual hCD39 mRNA expression relative to untreated cells (set as 1): 0.00

## +T*+T*+A*C*G*T*T*C*A*C*T*A*C*C*+T*+T*+C (antisense TTACGTTCACTACCTTC; sugars from the 5' end l3 d11 l3, all phosphorothioate, methylation of C not given here) [A04044H]
[2]; 0.0045 μM, Table 8
  mRNA inhibition: 12.17%
[2]; 0.013 μM, Table 8
  mRNA inhibition: 26.25%
[2]; 0.04 μM, Table 8
  mRNA inhibition: 45.88%
[2]; 0.12 μM, Table 8
  mRNA inhibition: 68.28%
[2]; 0.4 μM, Table 8
  mRNA inhibition: 82.63%
[2]; 1.1 μM, Table 8
  mRNA inhibition: 91.19%
[2]; 3.3 μM, Table 8
  mRNA inhibition: 96.20%
[2]; 10 μM, Table 8
  mRNA inhibition: 98.71%
[2]; [6]
  IC50: 0.0463 µM
[3]
  Mean hCD39 mRNA expression normalized to HPRT1 relative to untreated control = 1: 0.05
  Relative hCD39 mRNA expression (compared to non-treated cells): *
[4]
  Mean hCD39 mRNA expression (relative to untreated cells set as 1): 0.07
  Relative hCD39 mRNA expression (compared to non-treated cells): 0.04
